# Experimental data: patent USRE38520E1, “Erythromycin derivatives, method for preparing same, and use thereof as drugs” (Aventis Pharma S.A., priority 1996, dated 2004)
# Tests used:
# Test in all cases: Method of dilutions in liquid medium (M.I.C.)
# Assay type in all cases: cell-based
# Details in all cases: incubation twenty-four hours at 37° C.
# [1] = system: Staphylococtus aureus 011UC4
# Protocol: (§1) Method of Dilutions in Liquid Medium A series of tubes were prepared into which the same quantity of sterile nutritive medium is distributed. Increasing quantities of the product to be studied are distributed into each tube, then each tube is seeded with a bacterial strain. After incubation for twenty-four hours in a heating chamber at 37° C., the growth inhibition is evaluated by transillumination, which permits the minimal inhibitory concentrations (M.I.C.) to be determined, expressed in micrograms/cm^3.
# [2] = system: Streptoccocus faecium group D 02D2UCI
# Protocol: as §1
# [3] = system: Streptoccocus aritis 02mmGR01
# Protocol: as §1
# [4] = system: Streptoccocus sp. group G 02GRGR5
# Protocol: as §1
# [5] = system: Streptoccocus pyogenes group A 02A1UCI
# Protocol: as §1
# [6] = system: Streptoccocus aritis 02mmCH1
# Protocol: as §1
# [7] = system: Streptoccocus faecalis group C 02D2UCI
# Protocol: as §1
# [8] = system: Streptoccocus agalactae group B 02B1UTI
# Protocol: as §1
# [9] = system: Streptoccocus agalactae group B 02B1811
# Protocol: as §1
# [10] = system: Streptoccocus pneumoniae 031515
# Protocol: as §1
Compound,minimal inhibitory concentrations (M.I.C.) [1] [micrograms/cm^3],minimal inhibitory concentrations (M.I.C.) [2] [micrograms/cm^3],minimal inhibitory concentrations (M.I.C.) [3] [micrograms/cm^3],minimal inhibitory concentrations (M.I.C.) [4] [micrograms/cm^3],minimal inhibitory concentrations (M.I.C.) [5] [micrograms/cm^3],minimal inhibitory concentrations (M.I.C.) [6] [micrograms/cm^3],minimal inhibitory concentrations (M.I.C.) [7] [micrograms/cm^3],minimal inhibitory concentrations (M.I.C.) [8],minimal inhibitory concentrations (M.I.C.) [9] [micrograms/cm^3],minimal inhibitory concentrations (M.I.C.) [10] [micrograms/cm^3]
"11,12-dideoxy-3-de((2,6-dideoxy-3-C-methyl-3-O-methyl-alpha-L-ribohexopyranosyl)oxy)-3-hydroxy-6-O-methyl-12,11-(oxycarbonyl(2-(3-(4-quinolinyl)propyl)hydrazono)) erythromycin [Ex. 1]",0.3,0.04,0.15,0.04,0.04,0.3,0.04,≦0.02 micrograms/cm^3,0.6,0.6
"CC[C@H]1OC(=O)[C@H](C)[C@@H](O)[C@H](C)[C@@H](O[C@@H]2O[C@H](C)C[C@H](N(C)C)[C@H]2O)[C@](C)(OC)C[C@@H](C)C(=O)[C@H](C)[C@H]2N(CCCCn3cnc(-c4cccnc4)c3)C(=O)O[C@]12C [Ex. 2, 11,12-dideoxy-3-d((2,6-dideoxy-3-C-methyl-3-O-methyl-alpha-L-ribohexopyranosyl)oxy)-3-hydroxy-6-O-methyl-12,11-(oxycarbonyl((4-(4-(3-pyridinyl)-1H-imidazol-1-yl)-butyl)imino))-erythromycin]",–,0.3,0.6,0.15,0.15,0.34,0.3,0.04 micrograms/cm^3,1.2,1
